# Experimental data reported in patent publication US20260138961A1, “MODULATORS OF MITOCHONDRIAL DNA REPLICATION” (Pretzel Therapeutics, Inc., priority 2022, published 2026).
# Target: T1, POLγ W748S + E1143G (Homo sapiens, UniProt P54098, E1143G/W748S)
# T1 sequence (P54098 1-1239 W748S/E1143G): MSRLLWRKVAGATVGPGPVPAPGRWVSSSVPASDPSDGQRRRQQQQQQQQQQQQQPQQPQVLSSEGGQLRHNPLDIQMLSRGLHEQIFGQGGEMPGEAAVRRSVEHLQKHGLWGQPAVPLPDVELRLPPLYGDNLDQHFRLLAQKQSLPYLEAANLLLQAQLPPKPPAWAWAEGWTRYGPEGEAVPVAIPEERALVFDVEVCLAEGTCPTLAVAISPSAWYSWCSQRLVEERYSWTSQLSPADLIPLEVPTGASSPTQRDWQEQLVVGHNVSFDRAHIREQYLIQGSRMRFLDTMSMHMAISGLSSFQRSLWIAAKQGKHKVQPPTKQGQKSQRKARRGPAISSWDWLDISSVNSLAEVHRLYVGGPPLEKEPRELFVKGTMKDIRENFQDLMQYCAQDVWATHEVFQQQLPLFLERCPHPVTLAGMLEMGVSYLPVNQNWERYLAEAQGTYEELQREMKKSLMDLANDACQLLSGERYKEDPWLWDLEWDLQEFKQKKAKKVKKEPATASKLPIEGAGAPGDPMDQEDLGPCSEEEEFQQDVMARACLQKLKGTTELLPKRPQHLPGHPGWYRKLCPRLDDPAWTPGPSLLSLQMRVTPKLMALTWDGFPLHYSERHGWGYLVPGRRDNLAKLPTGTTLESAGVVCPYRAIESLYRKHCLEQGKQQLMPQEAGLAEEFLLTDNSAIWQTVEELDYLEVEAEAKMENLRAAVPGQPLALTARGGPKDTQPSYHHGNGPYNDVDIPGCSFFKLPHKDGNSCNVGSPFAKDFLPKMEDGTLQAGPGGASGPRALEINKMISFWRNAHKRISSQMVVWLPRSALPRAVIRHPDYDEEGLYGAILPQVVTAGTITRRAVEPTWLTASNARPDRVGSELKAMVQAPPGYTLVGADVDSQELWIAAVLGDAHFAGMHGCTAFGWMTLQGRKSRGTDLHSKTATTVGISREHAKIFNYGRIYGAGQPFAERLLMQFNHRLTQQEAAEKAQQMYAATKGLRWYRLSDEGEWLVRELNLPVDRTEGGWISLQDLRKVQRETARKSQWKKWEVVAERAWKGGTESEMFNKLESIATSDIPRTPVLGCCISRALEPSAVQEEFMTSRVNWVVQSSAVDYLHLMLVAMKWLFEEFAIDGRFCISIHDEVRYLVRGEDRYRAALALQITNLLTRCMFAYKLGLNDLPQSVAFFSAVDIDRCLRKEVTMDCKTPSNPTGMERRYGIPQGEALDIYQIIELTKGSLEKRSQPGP
# T1 sequence (Q9UHN1 1-485 partner): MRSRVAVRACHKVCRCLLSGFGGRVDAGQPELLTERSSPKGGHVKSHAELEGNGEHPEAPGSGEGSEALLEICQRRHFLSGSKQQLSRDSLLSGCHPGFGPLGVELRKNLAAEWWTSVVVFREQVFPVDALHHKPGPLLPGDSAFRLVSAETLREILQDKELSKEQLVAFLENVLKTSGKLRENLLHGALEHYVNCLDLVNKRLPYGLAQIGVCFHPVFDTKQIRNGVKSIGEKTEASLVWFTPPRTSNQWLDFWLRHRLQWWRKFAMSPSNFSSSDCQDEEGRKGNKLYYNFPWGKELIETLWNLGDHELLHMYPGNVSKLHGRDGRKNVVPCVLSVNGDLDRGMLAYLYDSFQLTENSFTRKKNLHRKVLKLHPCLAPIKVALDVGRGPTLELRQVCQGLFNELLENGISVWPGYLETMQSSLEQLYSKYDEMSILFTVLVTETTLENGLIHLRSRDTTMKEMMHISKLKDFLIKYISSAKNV
# Experiment: DNA polymerization assay, W748S + E1143G mutant
# Type: biochemical
# Settings: stimulation of polymerase activity, primed M13mp18 ssDNA, 37° C. 2 hours
# Experimental: DNA Polymerization Assay to Monitor Effects on Human Wildtype POLγ and Four Disease-Causing Mutant Variants of Human POLγ.
# The ability of small molecules to stimulate the polymerase activity of POLγ was analyzed in a quantitative fluorescence SYBR Green I assay with fluorescence intensity (FI) readout.
# In the presence of dNTPs, wild type human POLγ and mutant derivatives thereof were incubated with single-stranded, circular M13mp18 ssDNA hybridized to a short DNA oligonucleotide that functions as a primer for initiation of DNA synthesis. POLγ and mutant derivatives thereof will extend the primer and use the M13mp18 molecule as a template to synthesize long stretches of double-stranded DNA. SYBR Green I, which is a double-stranded DNA-binding dye, was used to quantify formation of double-stranded DNA in the reaction. When bound to double-stranded DNA, SYBR Green I fluorescence increases by up to 100-fold.
# The assay was performed in the 384-well plate format. Upon addition of compounds, changes in double-stranded DNA synthesis activity can be monitored by following effects on fluorescent intensity.
# The reactions also contained the accessory POLγB subunit, and the human mitochondrial single-stranded DNA binding protein (mtSSB).
# The DNA template mixture used in the assay contained 0.5 nM primed M13 mp18 ssDNA, 400 nM mtSSB, 0.1 mM Tris-HCl (pH 8.0), 0.1 mM dNTP, 10 mM MgCl2, 0.1 mg/mL BSA, 1 mM TCEP solution, and 0.02% Triton X-100. The DNA template mixture for the wild type protein contained either 100 μM dNTP, 1 μM dNTP, or 0.1 μM dNTP, designated in Table 2 as 100 μM, 1 μM, and 0.1 μM, respectfully.
# Microplates with compounds (0.1 μL in each well) to be tested in the assay were prepared from 10 mM compound stocks in 100% DMSO, and equal amounts of DMSO without any compound were added to positive and negative control wells.
# The protein mixture was dispensed (5 μL into each well) into compound plates and incubated at 37° C. for 15 minutes. After incubation, 5 μL of the DNA template mixture was dispensed into each well. The plates were then incubated at 37° C. for 2 hours.
# During incubation, a combined stop buffer and detection reagent solution was prepared. The buffer contained 25 mM EDTA (pH 8.0), 0.02% Triton X-100, and SYBR Green I [Invitrogen] diluted 10,000× (for fluorescent readout). EDTA will stop the enzymatic reaction by chelating magnesium ions.
row,AC50,Compound
1,> 10 µM,"Cc1cc(S(=O)(=O)Nc2nc(-c3ccccc3)n(C)n2)c(C)cc1Cl [Example 180, 4-chloro-2,5-dimethyl-N-(1-methyl-5-phenyl-1H-1,2,4-triazol-3-yl)benzenesulfonamide]"
2,4 µM,"Cc1cc(S(=O)(=O)Nc2cccc(-c3cc(C4CC4)[nH]n3)c2)c(C)cc1Cl [Example 64, 4-chloro-N-(3-(5-cyclopropyl-1H-pyrazol-3-yl)phenyl)-2,5-dimethylbenzenesulfonamide]"
3,0.7 µM,"Cc1cc(S(=O)(=O)Nc2csc(C(=O)N3CCC[C@H]3C)n2)c(C)cc1Cl [Example 174, (R)-4-chloro-2,5-dimethyl-N-(2-(2-methylpyrrolidine-1-carbonyl)thiazol-4-yl)benzenesulfonamide]"
4,0.7 µM,"Cc1cc(S(=O)(=O)Nc2csc(-c3cnn(C)c3)n2)c(C)cc1Cl [Example 183, 4-chloro-2,5-dimethyl-N-(2-(1-methyl-1H-pyrazol-4-yl)thiazol-4-yl)benzenesulfonamide]"
5,> 10 µM,"Cc1cc(S(=O)(=O)Nc2cnn(-c3ccccc3)n2)c(C)cc1Cl [Example 171, 4-chloro-2,5-dimethyl-N-(2-phenyl-2H-1,2,3-triazol-4-yl)benzenesulfonamide]"
6,9 µM,"Cc1cc(S(=O)(=O)Nc2cccc(C(=O)N[C@H](C)c3ccccc3)c2)c(C)cc1Cl [Example 48, (R)-3-((4-chloro-2,5-dimethylphenyl)sulfonamido)-N-(1-phenylethyl)benzamide]"
7,> 100 µM,"Cc1cc(S(=O)(=O)Nc2csc(C(=O)N(CC(N)=O)C3CCCC3)n2)c(C)cc1Cl [Example 177, N-(2-amino-2-oxoethyl)-4-((4-chloro-2,5-dimethylphenyl)sulfonamido)-N-cyclopentylthiazole-2-carboxamide]"
8,0.4 µM,"Cc1cc(S(=O)(=O)Nc2csc(-c3ccccn3)n2)c(C)cc1Cl [Example 173, 4-chloro-2,5-dimethyl-N-(2-(pyridin-2-yl)thiazol-4-yl)benzenesulfonamide]"
9,0.3 µM,"Cc1cc(S(=O)(=O)Nc2csc(-c3ccncc3)n2)c(C)cc1Cl [Example 176, 4-chloro-2,5-dimethyl-N-(2-(pyridin-4-yl)thiazol-4-yl)benzenesulfonamide]"
10,0.4 µM,"Cc1cc(S(=O)(=O)Nc2csc(C(=O)N3CCCC3)n2)c(C)cc1Cl [Example 166, 4-chloro-2,5-dimethyl-N-(2-(pyrrolidine-1-carbonyl)thiazol-4-yl)benzenesulfonamide]"
11,> 100 µM,"Cc1cc(S(=O)(=O)Nc2cc(F)cc(-c3nccs3)c2)c(C)cc1Cl [Example 62, 4-chloro-N-(3-fluoro-5-(thiazol-2-yl)phenyl)-2,5-dimethylbenzenesulfonamide]"
12,> 100 µM,"Cc1cc(S(=O)(=O)Nc2ccc(F)c(-c3nccs3)c2)c(C)cc1Cl [Example 63, 4-chloro-N-(4-fluoro-3-(thiazol-2-yl)phenyl)-2,5-dimethylbenzenesulfonamide]"
13,3 µM,"Cc1cnc(-c2cccc(NS(=O)(=O)c3cc(C)c(Cl)cc3C)c2)s1 [Example 21, 4-chloro-2,5-dimethyl-N-(3-(5-methylthiazol-2-yl)phenyl)benzenesulfonamide]"
14,> 10 µM,"Cc1cc(S(=O)(=O)Nc2csc(-c3ccn(C)n3)n2)c(C)cc1Cl [Example 181, 4-chloro-2,5-dimethyl-N-(2-(1-methyl-1H-pyrazol-3-yl)thiazol-4-yl)benzenesulfonamide]"

# The remaining lines, values behind:
row,Compound,AC50
1,"Cc1cc(S(=O)(=O)Nc2cn(C)c(-c3ccccc3)n2)c(C)cc1Cl [Example 170, 4-chloro-2,5-dimethyl-N-(1-methyl-2-phenyl-1H-imidazol-4-yl)benzenesulfonamide]",> 10 µM
2,"Cc1cc(-c2cccc(NS(=O)(=O)c3cc(C)c(Cl)cc3C)c2)n[nH]1 [Example 66, 4-chloro-2,5-dimethyl-N-(3-(5-methyl-1H-pyrazol-3-yl)phenyl)benzenesulfonamide]",5 µM
3,"Cc1cc(S(=O)(=O)Nc2csc(-n3cccn3)n2)c(C)cc1Cl [Example 178, N-(2-(1H-pyrazol-1-yl)thiazol-4-yl)-4-chloro-2,5-dimethylbenzenesulfonamide]",1 µM
4,"Cc1cc(S(=O)(=O)Nc2csc(C(=O)N(C)CC(N)=O)n2)c(C)cc1Cl [Example 172, N-(2-amino-2-oxoethyl)-4-((4-chloro-2,5-dimethylphenyl)sulfonamido)-N-methylthiazole-2-carboxamide]",> 100 µM
5,"Cc1cc(S(=O)(=O)Nc2cccc(C(=O)N3CCC[C@H]3C(C)C)c2)c(C)cc1Cl [Example 67, (S)-4-chloro-N-(3-(2-isopropylpyrrolidine-1-carbonyl)phenyl)-2,5-dimethylbenzenesulfonamide]",21 µM
6,"Cc1cc(S(=O)(=O)N(C)c2cccc(-c3nccs3)c2)c(C)cc1Cl [Example 22, 4-chloro-N,2,5-trimethyl-N-(3-(thiazol-2-yl)phenyl)benzenesulfonamide]",> 100 µM
7,"Cc1cc(S(=O)(=O)Nc2cccc(-c3cc[nH]n3)c2)c(C)cc1Cl [Example 68, N-(3-(1H-pyrazol-3-yl)phenyl)-4-chloro-2,5-dimethylbenzenesulfonamide]",2 µM
8,"Cc1csc(-c2cccc(NS(=O)(=O)c3cc(C)c(Cl)cc3C)c2)n1 [Example 20, 4-chloro-2,5-dimethyl-N-(3-(4-methylthiazol-2-yl)phenyl)benzenesulfonamide]",2 µM
9,"Cc1cc(S(=O)(=O)Nc2cn(Cc3ccccc3)cn2)c(C)cc1Cl [Example 168, N-(1-benzyl-1H-imidazol-4-yl)-4-chloro-2,5-dimethylbenzenesulfonamide]",> 100 µM
10,"Cc1cc(S(=O)(=O)Nc2cn(-c3ccccc3)cn2)c(C)cc1Cl [Example 169, 4-chloro-2,5-dimethyl-N-(1-phenyl-1H-imidazol-4-yl)benzenesulfonamide]",> 100 µM
